Results: patent EP4800018A1, “PAN-KRAS INHIBITOR AND USE THEREOF IN MEDICINES” (Betta Pharmaceuticals Co., Ltd., priority 2023, dated 2025)

Legend:
[1] = system: KRAS-G12D mutant tumor cells AGS; assay: Cell Proliferation Inhibition Assay (AGS), Cell-titer GLO, 96 h; type: cell-based; details: Homo sapiens, AGS, 96 h, AGS cells, 96 h incubation, Cell-titer GLO; read-out: AGS(G12D)
Method: KRAS-G12D mutant tumor cells AGS were seeded in low-attachment 96-well plates at a cell density of 1×10^3 cells/well and cultured overnight in a cell culture incubator. […] After incubation at 37°C for 96 h, 50 µL of Cell-titer GLO working solution was added to each well, mixed by shaking, incubated at room temperature for 10 min, and the Luminescence value was read on a multi-function microplate reader. The luminescence data were calculated and converted into inhibition percent. The inhibition percent of cell proliferation was calculated according to the following formula: Inhibition Percent = (MaxValue−MeasuredValue)/(MaxValue−Blank) × 100% [formula] […] Curve fitting was performed using GraphPad Prism software to obtain IC50 values, see Table 1.

[2] = system: KRAS-G12V mutant tumor cells SW620; assay: Cell Proliferation Inhibition Assay (SW620), Cell-titer GLO, 96 h; type: cell-based; details: Homo sapiens, SW-620, 96 h, SW620 cells, 96 h incubation, Cell-titer GLO; read-out: SW620(G12V)
Method: KRAS-G12V mutant tumor cells SW620 were seeded in low-attachment 96-well plates at a cell density of 1×10^3 cells/well and cultured overnight in a cell culture incubator. After the cells adhered, the test compounds were added to the 96-well plates at final concentrations of 10000, 2000, 400, 80, 16, 3.2, 0.64, 0.13, 0.03, 0 nM (final concentration of DMSO was 0.5% for all). After incubation at 37°C for 96 h, 50 µL of Cell-titer GLO working solution was added to each well, mixed by shaking, incubated at room temperature for 10 min, and the Luminescence value was read on a multi-function microplate reader. The luminescence data were calculated and converted into inhibition percent. The inhibition percent of cell proliferation was calculated according to the following formula: Inhibition Percent = (MaxValue−MeasuredValue)/(MaxValue−Blank) × 100% [formula]
("Max Value" comes from the 0.5% DMSO control well, "Blank" comes from the blank control well, and "Measured Value" comes from the compound-treated well).
Curve fitting was performed using GraphPad Prism software to obtain IC50 values, see Table 1.

Row | SMILES | IC50 [1] [nM] | IC50 [2] [nM]
1 | CCN1CCN(c2cnc3c(c2)-c2c4c5cc(ccc5n2C[C@@H](OC)CO[C@H]3C)-c2csc(n2)C[C@H](NC(=O)[C@H]2C[C@@H]2C)C(=O)N2CCC[C@H](N2)C(=O)OCC(C)(C)C4)CC1 [Example 203, (1S,2S)-N-((1^5S,1^8R,6^3S,4S,Z)-1^2-(4-ethylpiperazin-1-yl)-1^8-methoxy-1^5,10,10-trimethyl-5,7-dioxo-1^8,1^9,6^1,6^26^3,6^4,6^5,6^6-octahydro-1^5H,1^7H-8-oxa-1(13,15)-pyrido[3',2':7,8][1,5]oxazonino[5,6-a]indola-2(4,2)-thiazola-6(1,3)-pyridazinacycloundecaphane-4-yl)-2-methylcyclopropane-1-carb oxamide] | 2.1 | 3.3
2 | CCN1CCN(c2cnc3c(c2)-c2c4c5cc(ccc5n2CCCOC3C)-c2csc(n2)CC(NC(=O)C2C3COCC32)C(=O)N2CCCC(N2)C(=O)OCC(C)(C)C4)CC1 [Example 162, (3R,4r,5S)-N-((1^5S,6^3S,4S,Z)-1^2-(4-ethylpiperazin-1-yl)-1^5,10,10-trimethyl-5,7-dioxo-1^8,1^9,6^1,6^2 ,6^3,6^4,6^5,6^6-octahydro-1^5H,1^7H-8-oxa-1(13,15)-pyrido[3',2':7,8][1,5]oxazonino[5,6-a]indola-2(4, 2)-thiazola-6(1,3)-pyridazinacycloundecaphane-4-yl)tetrahydro-2H-pyran-4-carboxamide] | 1.08 | 
3 | C[C@@H]1OCCCn2c(c3c4cc(ccc42)-c2csc(n2)C[C@H](NC(=O)[C@H]2C[C@@H]2C(F)F)C(=O)N2CCC[C@H](N2)C(=O)OCC(C)(C)C3)-c2cc(OC[C@@H]3CCCCN3C)cnc21 [Example 156, (1S,2S)-2-(difluoromethyl)-N-((1^5S,6^3S,4S,Z)-1^5,10,10-trimethyl-1^2-(((S)-1-methylpiperidin-2-yl)methoxy)-5,7-dioxo-1^8,1^9,6^1,6^26^36^4,6^5,6^6-octahydro-1^5H,1^7H-8-oxa-1(13,15)-pyrido[3',2':7,8][1,5]oxazonino[5,6-a]indola-2(4,2)-thiazola-6(1,3)-pyridazinacycloundecaphane-4-yl)cyclopropane-1-carboxamide] | 8.27 | 
4 | C[C@@H]1OCCCn2c(c3c4cc(ccc42)-c2csc(n2)C[C@H](NC(=O)[C@H]2C[C@@H]2C(F)F)C(=O)N2CCC[C@H](N2)C(=O)OCC(C)(C)C3)-c2cc(N3C[C@@H]4C[C@H]3CN4C)cnc21 [Example 155, (1S,2S)-2-(difluoromethyl)-N-((1^5S,6^3S,4S,Z)-1^5,10,10-trimethyl-1^2-((1S,4S)-5-methyl-2,5-diazabicyclo[2.2.1]heptan-2-yl)-5,7-dioxo-1^8,1^9,6^1,6^26^3,6^4,6^5,6^6-octahydro-1^5H,1^7H-8-oxa-1(13,15)-pyrido[3',2':7,8][1,5]oxazonino[5,6-a]indola-2(4,2)-thiazola-6(1,3)-pyridazinacycloundecaphane-4-yl)cyclopropane-1-carboxamide] | 1.38 | 0.62
5 | CC1OCCCn2c(c3c4cc(ccc42)-c2csc(n2)CC(NC(=O)C2C(C)C2C)C(=O)N2NC(C(=O)OCC(C)(C)C3)C3CC2C3)-c2cc(N3CCN(C)CC3)nnc21 [Example 195, (1r,2R,3S)-2,3-dimethyl-N-((1^5S,6^4S,4S,Z)-1^5,10,10-trimethyl-1^2-(4-methylpiperazin-1-yl)-5,7-dioxo-1^8,1^9-dihydro-1^5H,1^7H-8-oxa-6^2,6^3-diaza-1(13,15)-pyridazino[4',3':7,8][1,5]oxazonino[5,6-a]indola-2(4,2)-thiazola-6(2,4)-bicyclo[3.1.1]heptanacycloundecaphane-4-yl)cyclopropane-1-car boxamide] | 0.6 | 0.06
6 | C[C@@H]1OCCCn2c(c3c4cc(ccc42)-c2csc(n2)C[C@H](NC(=O)[C@H]2C[C@@H]2C(F)F)C(=O)N2CCC[C@H](N2)C(=O)OCC(C)(C)C3)-c2cc(OCCN3CCOCC3)cnc21 [Example 157, (1S,2S)-2-(difluoromethyl)-N-((1^5S,6^3S,4S,Z)-1^5,10,10-trimethyl-1^2-(2-morpholinoethoxy)-5,7-dioxo-1^8,1^9,6^1,6^2,6^3,6^4,6^5,6^6-octahydro-1^5H,1^7H-8-oxa-1(13,15)-pyrido[3',2':7,8][1,5]oxazonino[5,6-a]indola-2(4,2)-thiazola-6(1,3)-pyridazinacycloundecaphane-4-yl)cyclopropane-1-carboxamide] | 3.31 | 0.58
7 | C[C@@H]1[C@H](C)[C@H]1C(=O)N[C@H]1Cc2nc(cs2)-c2ccc3c(c2)c(c2n3CCCO[C@@H](C)c3ncc(CN4CCOCC4)cc3-2)CC(C)(C)COC(=O)[C@@H]2CCCN(N2)C1=O [Example 194, (1r,2R,3S)-2,3-dimethyl-N-((1^5S,6^3S,4S,Z)-1^5,10,10-trimethyl-1^2-(morpholinomethyl)-5,7-dioxo-1^8,1^9,6^1,6^2,6^3,6^4,6^5,6^6-octahydro-1^5H,1^7H-8-oxa-1(13,15)-pyrido[3',2':7,8][1,5]oxazonino[5,6-a]indola-2(4,2)-thiazola-6(1,3)-pyridazinacycloundecaphane-4-yl)cyclopropane-1-carboxamide] | 3 | 1.4

Continued by falling IC50 [1], values first:

Row | IC50 [1] [nM] | IC50 [2] [nM] | SMILES
8 | 39 | 4.1 | CC1OCCCn2c(c3c4cc(ccc42)-c2csc(n2)CC(NC(=O)C2COC2)C(=O)N2NC(C(=O)OCC(C)(C)C3)C3CC2C3)-c2cc(N3CCN(C)CC3)cnc21 [Example 199, N-((1^5S,6^4S,4S,Z)-1^5,10,10-trimethyl-1^2-(4-methylpiperazin-1-yl)-5,7-dioxo-1^8,1^9-dihydro-1^5H, 1 ^7H-8-oxa-6^2,6^3-diaza-1(13,15)-pyrido[3',2':7,8][1,5]oxazonino[5,6-a]indola-2(4,2)-thiazola-6(2,4)-bicyclo[3.1.1]heptanacycloundecaphane-4-yl)oxetane-3-carboxamide]
9 | 2.25 | 0.98 | C[C@@H]1OCCCn2c(c3c4cc(ccc42)-c2csc(n2)C[C@H](NC(=O)[C@H]2C[C@@H]2C(F)F)C(=O)N2CCC[C@H](N2)C(=O)OCC(C)(C)C3)-c2cc(N(C)C3CCN(C)C3)cnc21 (stereo partly drawn) [Example 160, (1S,2S)-2-(difluoromethyl)-N-((1^5S,6^3S,4S,Z)-1^5,10,10-trimethyl-1^2-(methyl(1-methylpyrrolidin-3-yl)amino)-5,7-dioxo-1^8,1^9,6^1,6^2,6^3,6^4,6^5,6^6-octahydro-1^5H,1^7H-8-oxa-1(13,15)-pyrido[3',2':7,8][1,5]oxazonino[5,6-a]indola-2(4,2)-thiazola-6(1,3)-pyridazinacycloundecaphane-4-yl)cycloprop ane-1-carboxamide]
10 | 1.33 | 0.28 | C[C@@H]1OCCCn2c(c3c4cc(ccc42)-c2csc(n2)C[C@H](NC(=O)[C@H]2C[C@@H]2C(F)F)C(=O)N2CCC[C@H](N2)C(=O)OCC(C)(C)C3)-c2cc(N3CCOC(C)(C)C3)cnc21 [Example 153, (1S,2S)-2-(difluoromethyl)-N-((1^5S,6^3S,4S,Z)-1^2-(2,2-dimethylmorpholino)-1^5,10,10-trimethyl-5 ,7-dioxo-1^8,1^9,6^1,6^2,6^3,6^4,6^5,6^6-octahydro-1^5H,^17H-8-oxa-1(13,15)-pyrido[3',2':7,8][1,5]oxazonino[5,6-a]indola-2(4,2)-thiazola-6(1,3)-pyridazinacycloundecaphane-4-yl)cyclopropane-1-carboxamide]
11 | 0.4 | 0.2 | CC(C)[C@@H](C(=O)N[C@H]1Cc2nc(cs2)-c2ccc3c(c2)c(c2n3CCCO[C@@H](C)c3ncc(N4CCN(C)CC4)cc3-2)CC(C)(C)COC(=O)[C@H]2NN(C1=O)C1CC2C1)N(C)C(=O)N(C)C [Example 204, (2S)-3-methyl-N-((1^5S,6^4S,4S,Z)-1^5,10,10-trimethyl-1^2-(4-methylpiperazin-1-yl)-5,7-dioxo-1^8,1^9-dihydro-1^5H,1^7H-8-oxa-6^2,6^3-diaza-1(13,15)-pyrido[3',2':7,8][1,5]oxazonino[5,6-a]indola-2(4,2) -thiazola-6(2,4)-bicyclo[3.1.1]heptanacycloundecaphane-4-yl)-2-(1,3,3-trimethylureido)butanamide]
12 | 0.36 | 0.14 | C[C@@H]1[C@H](C)[C@H]1C(=O)N[C@H]1Cc2nc(cs2)-c2ccc3c(c2)c(c2n3CCCO[C@@H](C)c3ncc(N4C[C@@H](C)O[C@@H](C)C4)cc3-2)CC(C)(C)COC(=O)[C@@H]2CCCN(N2)C1=O [Example 166, (1r,2R,3S)-N-((1^5S,6^3S,4S,Z)-1^2-((2S,6R)-2,6-dimethylmorpholino)-1^5,10,10-trimethyl-5,7-dioxo-1^8,1^9,6^1,6^2,6^3,6^4,6^5,6^6-octahydro-1^5H,1^7H-8-oxa-1(13,15)-pyrido[3',2':7,8][1,5]oxazonino[5,6-a]indola-2(4,2)-thiazola-6(1,3)-pyridazinacycloundecaphane-4-yl)-2,3-dimethylcyclopropane-1-ca rboxamide]
